# Patent publication US7846747B2, “Biocatalytic solgel microarrays” (Rensselaer Polytechnic Institute, priority 2001, dated 2010)
# System: MCF7 breast cancer cells
compound,measurement,value
O=P1(N(CCCl)CCCl)NCCCO1 (stereo not shown) [cyclophosphamide],number of dead cells and ratio of dead to live cells,significant increase in the number of dead cells
